The record followed here is the NIST ThermoML archive (doi:10.1016/j.fluid.2015.03.027).

Numbers after ± are expanded uncertainties.

For series [1] the following is noted: 298.15 K; 101.33 kPa; Liquid; Vibrating tube method.
A short description of series [2]: refractive index (Na D-line) (dimensionless). The following applies: 298.15 K; 101.33 kPa; Liquid; Standard Abbe refractometry.

As a reminder, the mass density is the mass of a sample divided by its volume. In the case of `CCCC[n+]1ccc(C)cc1.N#CC(=C=[N-])C#N` [1-butyl-4-methylpyridinium tricyanomethanide], the mass density in series [1] is recorded as 1036.68 ± 1.3 kg/m3.

The refractive index is a measure of how strongly the sample bends light. For the compound `CCCO` [propan-1-ol], the refractive index in series [2] is 1.38375 ± 0.00072. Besides, the mass density in series [1] is listed as 799.52 ± 1 kg/m3.

Regarding `CCCCCCC` [heptane], the refractive index in series [2] was 1.38519 ± 0.00073. Moreover, the mass density in series [1] stood at 679.48 ± 1 kg/m3.

In the case of `c1ccncc1` [pyridine], the refractive index in series [2] came out at 1.5094 ± 0.00072. The mass density in series [1] is on record as 982.85 ± 1 kg/m3.

In the case of `CC(C)=O` [acetone], the refractive index in series [2] came to 1.356 ± 0.0007. Further, the mass density in series [1] is 785.23 ± 1 kg/m3.
